# Experimental data reported in PubChem BioAssay (NCI).
#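 Grown in 96-well plates, cells were treated for 48 hours with each compound at five concentrations. Insufficient inhibition: endpoint recorded as highest concentration tested. GI50 is the concentration that inhibits growth by half. TGI is the concentration that stops growth completely.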
# Experiments:
# Test in all cases: inhibition of tumour cell growth, NCI panel, 48 h
# [1] = test system: 786-0 renal
# [2] = test system: A498 renal
# [3] = test system: A549 NSCLC
# [4] = test system: ACHN renal
# [5] = test system: BT-549 breast
# [6] = test system: CAKI-1 renal
# [7] = test system: CCRF-CEM leukemia
# [8] = test system: COLO 205 colon
# [9] = test system: DU-145 prostate
# [10] = test system: EKVX NSCLC
# [11] = test system: HCC-2998 colon
# [12] = test system: HCT-116 colon
# [13] = test system: HCT-15 colon
# [14] = test system: HL-60(TB) leukemia
# [15] = test system: HOP-62 NSCLC
# [16] = test system: HOP-92 NSCLC
# [17] = test system: HS 578T breast
# [18] = test system: HT29 colon
# [19] = test system: IGROV1 ovarian
# [20] = test system: K-562 leukemia
# [21] = test system: KM12 colon
# [22] = test system: LOX IMVI melanoma
# [23] = test system: M14 melanoma
# [24] = test system: MALME-3M melanoma
# [25] = test system: MCF7 breast
# [26] = test system: MDA-MB-231 breast
# [27] = test system: MDA-MB-435
# [28] = test system: MOLT-4 leukemia
# [29] = test system: NCI-H226 lung
# [30] = test system: NCI-H23 lung
# [31] = test system: NCI-H460 lung
# [32] = test system: NCI-H522 lung
# [33] = test system: NCI/ADR-RES ovarian
# [34] = test system: OVCAR-3 ovarian
# [35] = test system: OVCAR-4 ovarian
# [36] = test system: OVCAR-5 ovarian
# [37] = test system: OVCAR-8 ovarian
# [38] = test system: PC-3 prostate
# [39] = test system: RPMI-8226 leukemia
# [40] = test system: RXF 393 renal
# [41] = test system: SF-268 CNS
# [42] = test system: SF-295 CNS
# [43] = test system: SF-539 CNS
# [44] = test system: SK-MEL-2 melanoma
# [45] = test system: SK-MEL-28 melanoma
# [46] = test system: SK-MEL-5 melanoma
# [47] = test system: SK-OV-3 ovarian
# [48] = test system: SN12C renal
# [49] = test system: SNB-19 CNS
# [50] = test system: SNB-75 CNS
# [51] = test system: SR leukemia
# [52] = test system: SW-620 colon
# [53] = test system: T-47D breast
# [54] = test system: TK-10 renal
# [55] = test system: U251 CNS
# [56] = test system: UACC-257 melanoma
# [57] = test system: UACC-62 melanoma
# [58] = test system: UO-31 renal
structure (smiles),measurement,setting,value
CON=C1C[C@]2(C[C@@H]3C[C@@H](C/C=C(\C)C[C@@H](C)/C=C/C=C4\CO[C@@H]5[C@H](O)C(C)=C[C@@H](C(=O)O3)[C@]45O)O2)O[C@H](/C(C)=C/C(C)C)[C@H]1C,GI50,[1],14.2 µM
same,TGI,[1],28.4 µM
same,GI50,[2],10.5 µM
same,TGI,[2],22.9 µM
same,GI50,[3],13.8 µM
same,TGI,[3],29.1 µM
same,GI50,[4],15.2 µM
same,TGI,[4],29.3 µM
same,GI50,[5],18 µM
same,TGI,[5],33.4 µM
same,GI50,[6],7.52 µM
same,TGI,[6],21.6 µM
same,GI50,[7],7.65 µM
same,TGI,[7],34.3 µM
same,GI50,[8],13.7 µM
same,TGI,[8],28.5 µM
same,GI50,[9],7.55 µM
same,TGI,[9],20.1 µM
same,GI50,[10],6.99 µM
same,TGI,[10],24 µM
same,GI50,[11],12.1 µM
same,TGI,[11],26.9 µM
same,GI50,[12],5.44 µM
same,TGI,[12],19 µM
same,GI50,[13],14.9 µM
same,TGI,[13],30.9 µM
same,GI50,[14],2.48 µM
same,TGI,[14],5.92 µM
same,GI50,[15],15.5 µM
same,TGI,[15],29 µM
same,GI50,[16],1.99 µM
same,TGI,[16],11.8 µM
same,GI50,[17],16.6 µM
same,TGI,[17],39.6 µM
same,GI50,[18],11.1 µM
same,TGI,[18],25.3 µM
same,GI50,[19],11.5 µM
same,TGI,[19],23.9 µM
same,GI50,[20],3.69 µM
same,TGI,[20],10.8 µM
same,GI50,[21],8.1 µM
same,TGI,[21],21.9 µM
same,GI50,[22],13.3 µM
same,TGI,[22],26.5 µM
same,GI50,[23],16.1 µM
same,TGI,[23],33.1 µM
same,GI50,[24],17.1 µM
same,TGI,[24],34.4 µM
same,GI50,[25],15.9 µM
same,TGI,[25],30 µM
same,GI50,[26],11.2 µM
same,TGI,[26],24.9 µM
same,GI50,[27],7.98 µM
same,TGI,[27],21.5 µM
same,GI50,[28],3.02 µM
same,TGI,[28],8.53 µM
same,GI50,[29],16 µM
same,TGI,[29],29.8 µM
same,GI50,[30],12.6 µM
same,TGI,[30],28.4 µM
same,GI50,[31],13.1 µM
same,TGI,[31],30.3 µM
same,GI50,[32],12 µM
same,TGI,[32],26.1 µM
same,GI50,[33],14.4 µM
same,TGI,[33],29 µM
same,GI50,[34],4.45 µM
same,TGI,[34],15.8 µM
same,GI50,[35],16 µM
same,TGI,[35],29.7 µM
same,GI50,[36],18.1 µM
same,TGI,[36],37.4 µM
same,GI50,[37],16.3 µM
same,TGI,[37],39.1 µM
same,GI50,[38],2.63 µM
same,TGI,[38],11.2 µM
same,GI50,[39],4.23 µM
same,TGI,[39],53.6 µM
same,GI50,[40],16.4 µM
same,TGI,[40],30.6 µM
same,GI50,[41],13 µM
same,TGI,[41],27.5 µM
same,GI50,[42],9.16 µM
same,TGI,[42],22 µM
same,GI50,[43],20.4 µM
same,TGI,[43],36.9 µM
same,GI50,[44],15.4 µM
same,TGI,[44],32.5 µM
same,GI50,[45],17.5 µM
same,TGI,[45],31.7 µM
same,GI50,[46],15.4 µM
same,TGI,[46],29.1 µM
same,GI50,[47],15.2 µM
same,TGI,[47],28.5 µM
same,GI50,[48],14 µM
same,TGI,[48],28.3 µM
same,GI50,[49],15.7 µM
same,TGI,[49],35.3 µM
same,GI50,[50],18.7 µM
same,TGI,[50],35.3 µM
same,GI50,[51],3.91 µM
same,TGI,[51],40.9 µM
same,GI50,[52],11.8 µM
same,TGI,[52],25.3 µM
same,GI50,[53],8.9 µM
same,TGI,[53],22.2 µM
same,GI50,[54],17.8 µM
same,TGI,[54],33.4 µM
same,GI50,[55],11.3 µM
same,TGI,[55],24.3 µM
same,GI50,[56],16.9 µM
same,TGI,[56],32.9 µM
same,GI50,[57],14.4 µM
same,TGI,[57],29.6 µM
same,GI50,[58],11.2 µM
same,TGI,[58],23.3 µM
